The results in this text go back to ChEMBL document CHEMBL1201862, “PubChem BioAssay data set” (2004).

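1) Cells in 96-well plates. 2) Compound, 48 h, 5 concentrations. 3) Linear interpolation between surrounding doses. 4) Unreached endpoint = highest concentration. GI50: concentration for 50% inhibition of growth.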 Active and inactive are the calls of the source. Rule as the data show it: active = GI50 up to about 1.1 µM and inactive = higher.

Test systems include SK-OV-3; MCF7; HOP-92; 786-0; LOX IMVI; UO-31; MDA-N; U-251; OVCAR-3; CAKI-1; TK-10; M14; SW-620; A498; SR; PC-3; NCI-H23.
Common to all, as to test: DTP human tumour cell line panel, 48 h

Consider `O=C1OC2(c3ccc(O)cc3Oc3cc(O)ccc32)c2c1c(-c1ccccc1)c(-c1ccccc1)c(-c1ccccc1)c2-c1ccccc1`, for which the GI50 in the assay with SK-OV-3 is 39 µM (inactive); with MCF7 it was 17.1 µM (inactive); in the assay with HOP-92 it was 20 µM (inactive); in the assay with 786-0, 27.7 µM (inactive); in the assay with LOX IMVI it was 18.5 µM (inactive); in the assay on UO-31, 25.7 µM (inactive). For the same compound, the GI50 in the assay with MDA-N was 21.8 µM (inactive); in the assay on U-251 it was 17.7 µM (inactive); with OVCAR-3, 34.5 µM (inactive); with CAKI-1 it was 25.1 µM (inactive); in the assay on TK-10 it was 23.7 µM (inactive); in the assay with M14, 18.2 µM (inactive). The GI50 in the assay with SW-620 is 20.9 µM (inactive); in the assay with A498 it was 19.7 µM (inactive); in the assay on SR, 22.6 µM (inactive); in the assay with PC-3 it was 17.9 µM (inactive).
As to `O=C(O)CCC1(c2ccccc2)NC(=O)NC1=O` (centres undefined), the GI50 with SK-OV-3, in the assay on MCF7, with HOP-92, in the assay on 786-0, with LOX IMVI and in the assay on MDA-N was > 100 µM (inactive) in each case. In addition, the GI50 in the assay with U-251, with OVCAR-3, with NCI-H23, in the assay with CAKI-1, with TK-10 and in the assay on SW-620 was > 100 µM (inactive) each time. For the same compound, the GI50 with A498, with SR and in the assay on PC-3 was > 100 µM (inactive) throughout.
Consider `COc1ccc2c(c1)C(OC)C1c3c(cc4c(c3-2)OCO4)CCN1C` (centres undefined), for which the GI50 is 4.5 µM (inactive) in the assay with SK-OV-3; 2.67 µM (inactive) with MCF7; 0.925 µM (active) with HOP-92; 3.64 µM (inactive) in the assay with 786-0; 2.81 µM (inactive) in the assay with LOX IMVI; 1.67 µM (inactive) with UO-31. The GI50 in the assay with MDA-N is 2.86 µM (inactive); in the assay with U-251, 3.67 µM (inactive); with OVCAR-3, 5.81 µM (inactive); in the assay with NCI-H23, 2.8 µM (inactive); with CAKI-1, 2.12 µM (inactive); in the assay on TK-10, 4.53 µM (inactive). The GI50 in the assay with M14 is 2.64 µM (inactive); in the assay on SW-620, 2.32 µM (inactive); in the assay with A498, 1.82 µM (inactive); in the assay with SR it was 2.4 µM (inactive); in the assay on PC-3, 2.6 µM (inactive).
Regarding `O[C@@H]1CCC[C@@H]2NC[C@@H](c3ccc4c(c3)OCO4)[C@H]12`, the GI50 in the assay with SK-OV-3, in the assay on MCF7, in the assay with HOP-92, in the assay with 786-0, in the assay on LOX IMVI and with UO-31 was > 100 µM (inactive) in each case. The GI50 in the assay with MDA-N, in the assay on U-251, in the assay on OVCAR-3, in the assay with NCI-H23, in the assay on CAKI-1 and in the assay with TK-10 was > 100 µM (inactive) throughout. Moreover, the GI50 in the assay with M14, in the assay on SW-620, with A498, in the assay with SR and in the assay with PC-3 was > 100 µM (inactive) in each case.
In the case of `COc1ccc2c3c1OC1C(OC)(OC)C=C[C@@]4(Br)[C@@H](C2)N(CC2CC2)CC[C@]314` (some centres undefined), the GI50 in the assay on SK-OV-3 is > 100 µM (inactive); with MCF7 it was 52.1 µM (inactive); in the assay on HOP-92, 23.8 µM (inactive); in the assay on 786-0 it was > 100 µM (inactive); with LOX IMVI, 87.9 µM (inactive); in the assay on UO-31 it was 35.2 µM (inactive). For the same compound, the GI50 in the assay on MDA-N was 49.5 µM (inactive); in the assay on U-251, > 100 µM (inactive); in the assay with OVCAR-3, 46.7 µM (inactive); with NCI-H23, 71.3 µM (inactive); with CAKI-1, 59 µM (inactive); in the assay on TK-10 it was > 100 µM (inactive). For the same compound, the GI50 is 27.1 µM (inactive) in the assay with M14; 33.7 µM (inactive) in the assay on SW-620; > 100 µM (inactive) in the assay with A498; > 100 µM (inactive) in the assay on SR; 99.1 µM (inactive) in the assay with PC-3.
`N#C/C(=C/NC(=S)NCc1ccccc1)C(N)=O`: the GI50 was > 100 µM (inactive) in the assay on SK-OV-3; > 100 µM (inactive) in the assay with MCF7; > 100 µM (inactive) in the assay with HOP-92; > 100 µM (inactive) in the assay on 786-0; > 100 µM (inactive) in the assay with LOX IMVI; 50.1 µM (inactive) in the assay on UO-31. Also, the GI50 in the assay with MDA-N was > 100 µM (inactive); in the assay with U-251 it was > 100 µM (inactive); with OVCAR-3 it was 0.063 µM (active); with NCI-H23, > 100 µM (inactive); in the assay with CAKI-1 it was > 100 µM (inactive); with M14 it was > 100 µM (inactive). Moreover, the GI50 with SW-620, in the assay with A498, with SR and in the assay with PC-3 was > 100 µM (inactive) in each case.
In the case of `CCN(CC)CCCNc1nncc2c(C)c3[nH]c4ccccc4c3cc12`, the GI50 is 0.989 µM (active) in the assay on SK-OV-3; 0.331 µM (active) with MCF7; 0.847 µM (active) in the assay on HOP-92; 0.667 µM (active) with 786-0; 0.242 µM (active) with LOX IMVI; 5.79 µM (inactive) in the assay on UO-31. The GI50 with MDA-N is 1.06 µM (active); with U-251, 0.605 µM (active); in the assay on OVCAR-3, 1.03 µM (active); in the assay on NCI-H23, 0.743 µM (active); in the assay with CAKI-1, 3.61 µM (inactive); with TK-10, 4.52 µM (inactive). The GI50 in the assay on M14 is 1.89 µM (inactive); with A498 it was 0.665 µM (active); in the assay on SR it was 0.247 µM (active); with PC-3 it was 0.705 µM (active).
As for `CCOC(=O)C1=C(c2ccccc2)C12N(Cc1ccccc1)C(=O)C2(c1ccccc1)c1ccccc1` (centres undefined), the GI50 is 47.9 µM (inactive) with SK-OV-3; 38.6 µM (inactive) in the assay with MCF7; 20 µM (inactive) with HOP-92; 34.9 µM (inactive) in the assay on LOX IMVI; 28.8 µM (inactive) in the assay with UO-31; 25.5 µM (inactive) in the assay with MDA-N. For the same compound, the GI50 in the assay with U-251 is 37.8 µM (inactive); in the assay on OVCAR-3, 33.8 µM (inactive); in the assay on NCI-H23 it was 39.1 µM (inactive); with TK-10, > 100 µM (inactive); in the assay on M14, 43.4 µM (inactive); in the assay on SW-620, 42.2 µM (inactive). Also, the figures for the GI50 in the assay with A498, in the assay with SR and in the assay with PC-3 were 36.8 µM (inactive), 45.3 µM (inactive) and 21.3 µM (inactive), respectively.
Consider `N#C/C(C(=O)Nc1ccc(Cl)cc1)=C(/N)N1CCOCC1`, for which the GI50 in the assay on SK-OV-3 was > 100 µM (inactive); with MCF7, > 100 µM (inactive); in the assay with HOP-92 it was > 100 µM (inactive); in the assay with 786-0, > 100 µM (inactive); in the assay on LOX IMVI it was > 100 µM (inactive); with UO-31, 91 µM (inactive). Besides, the GI50 was 61.8 µM (inactive) with MDA-N; > 100 µM (inactive) with U-251; 96.8 µM (inactive) in the assay on OVCAR-3; > 100 µM (inactive) in the assay on NCI-H23; > 100 µM (inactive) in the assay with CAKI-1; 86.3 µM (inactive) with M14. In addition, the GI50 in the assay on SW-620, in the assay with A498, in the assay with SR and in the assay on PC-3 was > 100 µM (inactive) in each case.
Turning to `O=C1Nc2ccccc2S/C1=C\c1cccc(C(F)(F)F)c1`, the GI50 with SK-OV-3 was > 100 µM (inactive); in the assay on MCF7, 0.467 µM (active); with HOP-92, 60.1 µM (inactive); in the assay on 786-0, > 100 µM (inactive); in the assay on LOX IMVI, > 100 µM (inactive); with UO-31 it was > 100 µM (inactive). Also, the GI50 with MDA-N is > 100 µM (inactive); in the assay with U-251, > 100 µM (inactive); in the assay on OVCAR-3 it was > 100 µM (inactive); in the assay with CAKI-1, 3.01 µM (inactive); with TK-10, > 100 µM (inactive); in the assay on M14 it was > 100 µM (inactive). The GI50 with SW-620, with A498, with SR and in the assay on PC-3 was > 100 µM (inactive) each time.
For the compound `COc1ccc2cc(C(C)C(=O)N3C(=O)OCC3(C)C)ccc2c1` (centres undefined), the GI50 with SK-OV-3, with MCF7, in the assay on HOP-92, in the assay with 786-0, in the assay with LOX IMVI and in the assay on UO-31 was > 100 µM (inactive) in each case. Also, the GI50 in the assay with MDA-N, with U-251, in the assay on OVCAR-3, in the assay on NCI-H23, in the assay with TK-10 and with M14 was > 100 µM (inactive) in each case. For the same compound, the GI50 with SW-620, in the assay with A498, with SR and in the assay with PC-3 was > 100 µM (inactive) throughout.
Consider `CC(C)(C)OC(=O)CCC1NC(=O)[C@@H]2Cc3c([nH]c4ccccc34)C(c3ccccc3)N2C1=O` (some centres undefined), for which the GI50 with SK-OV-3 was 29.6 µM (inactive); with MCF7 it was 32.4 µM (inactive); with HOP-92, 27.9 µM (inactive); in the assay with 786-0, 30.6 µM (inactive); with LOX IMVI, 18.8 µM (inactive); in the assay on UO-31, 29.4 µM (inactive). Also, the GI50 with MDA-N was 19.8 µM (inactive); in the assay with U-251, 18.2 µM (inactive); with OVCAR-3, 21.6 µM (inactive); with NCI-H23, 29.1 µM (inactive); with CAKI-1, 29.2 µM (inactive); in the assay with TK-10, 33.7 µM (inactive). Further, the GI50 was 25.9 µM (inactive) with M14; 41.7 µM (inactive) in the assay with SW-620; 36.2 µM (inactive) in the assay with A498; > 100 µM (inactive) with SR; 19.3 µM (inactive) with PC-3.
